Laboratory results reported in patent US20260159519A1, “IMIDAZOPYRIDAZINE SUBSTITUTED BENZENE RING DERIVATIVE, PREPARATION METHOD, PHARMACEUTICAL COMPOSITION AND USE” (SHANGHAI SIMR BIOTECHNOLOGY CO., LTD., priority 2022, published 2026).

Columns and labels:
[1] = system: Chinese hamster ovary cells (CHO-WBL cells); test: In vitro micronucleus assay; type: cell-based; conditions: 3-hour treatment with S9, 3-hour and 24-hour treatment without S9; overall judgment
From the text: The experimental design is based on the experimental purpose and follows the following experimental design guidelines: • (1) OECD Guidelines for the Testing of Chemicals 487, In Vitro Mammalian Cell Micronucleus Test, revised in 2016; • (2) ICH S2 (R1): Guideline on Genotoxicity Testing and Data Interpretation for Pharmaceuticals Intended for Human Use, validated in November 2011.
Experimental system and selection rationale: Chinese hamster ovary cells (CHO-WBL cells) were used as an experimental system in this experiment. The cell line has a karyotype containing 21 chromosomes and a growth cycle of 12 to 13 hours. CHO-WBL cells were originally derived from Dr. S. Wolff at the University of California in San Francisco, USA, then cloned in the laboratory of Dr. A. Bloom at Columbia University in New York, and cloned again by Dr. S. Galloway at Litton Bionetics Laboratory in Maryland. The cell stock solution was stored in liquid nitrogen. The karyotype of each batch of cell stock solution was identified, and tests confirmed that it was free from mycoplasma contamination. The number of passages after cell cloning will not exceed 15. Chinese hamster ovary cells were chosen because the cell line is recommended for use in OECD Guidelines for the Testing of Chemicals 487 and has been proven to be sensitive to a variety of clastogens/aneugens (Marilyn J. et al., 2006).
Medium and cell growth conditions: Chinese hamster ovary cells were cultured in McCoy's 5A complete medium (McCoy's 5A complete medium supplemented with 10 vt % fetal bovine serum, 2 mM GlutaMAX™ medium, 100 units/mL penicillin, and 100 μg/mL streptomycin), and grown in a standard environment (a high-humidity incubator with a temperature of 37° C. and a CO2 concentration of 5%). The day before administration, CHO-WBL cells in exponential growth phase were inoculated onto an eight-well cell culture slide at a density of 8×10^3 cells/400 μL McCoy's 5A complete medium/well.
Metabolic activation system: The in vitro metabolic activation system (Maron and Ames, 1983) contains a rat liver microsomal homogenate induced by β-naphthoflavone and phenobarbital (referred to as S9) and an NADPH-generating system (i.e., NADP disodium and isocitric acid trisodium). S9 was purchased from CHI Scientific, Inc. and stored in a −75° C. refrigerator prior to use. Preparation method for S9 homogenate: Male Sprague Dawley rats were intraperitoneally injected with a single dose of p-naphthoflavone and phenobarbital, followed by material preparation.
Preparation of S9 metabolic activation system: NADP disodium salt and isocitric acid trisodium salt were first dissolved in serum-free medium to prepare a core solution, which was then filtered through a 0.22 µm filter to sterilize. Immediately before use, the S9 homogenate was thawed, and the components of the S9 metabolic activation system were mixed in the proportions shown in Table 2 below.
Dose exploration experiment: In the dose exploration experiment, 8 administration concentrations were established in each administration treatment series. For each concentration of the test substance, 1 well of cells was set up. According to the ICH S2 (R1) guidelines, when not limited by the solubility of the test substance in the solvent/medium or the cytotoxicity of the test substance, the recommended maximum concentration is 1 mM or 0.5 mg/mL, whichever is lower. However, when limited by solubility, the test maximum concentration is the minimum concentration at which a small amount of precipitate is visible in the medium under the microscope. To ensure that the upper limit of solubility in the medium can be reached, up to 4 concentrations with visible precipitate can be tested.

[2] = biological target: T1, human α2-GABAA receptor (α2-GABAAR-HEK293 cells) (Homo sapiens, UniProt P18507+P47869); test: Whole-cell patch-clamp electrophysiology, positive allosteric modulatory activity on α2-GABAA receptor; type: cell-based; conditions: read-out: α2-GABAA positive allosteric modulatory activity
T1 construct: expressed in transfected cells

[3] = biological target: T2, human α1-GABAA receptor (α1-GABAAR-HEK293 cells) (Homo sapiens, UniProt P14867+P18507); test: Whole-cell patch-clamp electrophysiology, positive allosteric modulatory activity on α1-GABAA receptor; type: cell-based; conditions: read-out: α1-GABAA positive allosteric modulatory activity
T2 construct: expressed in transfected cells

[4] = biological target: T3, human α2-GABAA receptor (BZD site, membrane protein of HEK293 cells) (Homo sapiens, UniProt P18507+P47869); test: Radioligand competitive binding assay (3H-flunitrazepam) at the BZD site of the α2-GABAA receptor; conditions: competition with 1 nM 3H-flunitrazepam; Ki calculated from IC50; read-out: α2 Ki
T3 construct: expressed in transfected cells

Compound	Results of in vitro micronucleus assay [1]	activation at 0.1 µM [2] [%]	activation at 0.1 µM [3] [%]	Ki [4] [nM]
CCn1cnc2c(-c3ccc(F)c(-c4ccc(S(=O)(=O)CC)cc4OC)c3)cnnc21 [CVL-865, reference compound]	Positive	100	100	–
CCN1C(=O)Cc2cc(-c3cc(-c4cnnc5c4ncn5CC)ccc3F)c(OC)cc21 [Example 167, 1-Ethyl-5-(5-(7-ethyl-7H-imidazo[4,5-c]pyridazin-4-yl)-2-fluorophenyl)-6-methoxyindol-2-one]	–	125	35	13.9
CCn1cnc2c(-c3ccc(F)c(-c4cc5cncnc5cc4OC)c3)cnnc21 [Example 164, 6-(5-(7-Ethyl-7H-imidazo[4,5-c]pyridazin-4-yl)-2-fluorophenyl)-7-methoxyquinazoline]	–	122	29	9.24
CCn1cnc2c(-c3ccc(F)c(-c4cc5ccncc5cc4OC)c3)cnnc21 [Example 123, 6-(5-(7-Ethyl-7H-imidazo[4,5-c]pyridazin-4-yl)-2-fluorophenyl)-7-methoxyisoquinoline]	–	95	33	7.7
